Source: PubChem BioAssay AID330 (DTP/NCI, 2004)
“And” between values parts separate entries of the source, which are not always exact repeats. Identical values can stand only once. Inconclusive results and toxic doses are left out. The calls were made as follows: active = survival T/C of 150% or more; inactive = T/C below 125% in these data.

Tested on: P388 leukemia ip, CD2F1 mice, survival T/C
Test: NCI In Vivo Anticancer Drug Screen. Data for tumor model P388 Leukemia (intraperitoneal) in CD2F1 (CDF1) mice
Conditions: endpoint: median survival time, higher = longer survival
How it was run: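 Mice carrying the transplanted tumor received test compound or vehicle. Survival was recorded in each group, and the value is the treated-group measurement divided by that of the vehicle-treated control group.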

[1] = dose: 50.0 mg/kg/injection, schedule: Q01DX005 (ip), vehicle: saline with Tween-80
[2] = dose: 100.0 mg/kg/injection, schedule: Q01DX005 (ip), vehicle: saline with Tween-80
[3] = dose: 200.0 mg/kg/injection, schedule: Q01DX005 (ip), vehicle: saline with Tween-80
[4] = dose: 100.0 mg/kg/injection, schedule: Q01DX009 (ip), vehicle: saline
[5] = dose: 200.0 mg/kg/injection, schedule: Q01DX009 (ip), vehicle: saline
[6] = dose: 400.0 mg/kg/injection, schedule: Q01DX009 (ip), vehicle: saline
[7] = dose: 50.0 mg/kg/injection, schedule: Q01DX009 (ip), vehicle: saline with Tween-80
[8] = dose: 100.0 mg/kg/injection, schedule: Q01DX009 (ip), vehicle: saline with Tween-80
[9] = dose: 200.0 mg/kg/injection, schedule: Q01DX009 (ip), vehicle: saline with Tween-80
[10] = dose: 50.0 mg/kg/injection, schedule: Q01DX009 (ip), vehicle: Klucel (hydroxypropylcellulose) (HPC)
[11] = dose: 100.0 mg/kg/injection, schedule: Q01DX009 (ip), vehicle: Klucel (hydroxypropylcellulose) (HPC)
[12] = dose: 60.0 mg/kg/injection, schedule: Q01DX005 (ip), vehicle: saline with Tween-80
[13] = dose: 120.0 mg/kg/injection, schedule: Q01DX005 (ip), vehicle: saline with Tween-80
[14] = dose: 240.0 mg/kg/injection, schedule: Q01DX005 (ip), vehicle: saline with Tween-80
[15] = dose: 25.0 mg/kg/injection, schedule: Q01DX009 (ip), vehicle: saline
[16] = dose: 50.0 mg/kg/injection, schedule: Q01DX009 (ip), vehicle: saline

Measured: T/C

COC(=O)C(CO)NC(=O)C(Cc1cnc[nH]1)N(C(=O)OCc1ccccc1)C(=O)OCc1ccccc1 (stereo unspecified)
inactive: [1] 94 % of control | [2] 96 % of control | [3] 94 % of control

CC(C)=CCC1=C(O)c2ccccc2C(=O)C1=O
inactive: dose: 75.0 mg/kg/injection, schedule: Q01DX010 (ip), vehicle: other 120 % of control | [4] 118 % of control | dose: 100.0 mg/kg/injection, schedule: Q01DX010 (ip), vehicle: other 110 % of control | dose: 100.0 mg/kg/injection, schedule: Q04DX003 (ip), vehicle: saline 110 % of control | dose: 125.0 mg/kg/injection, schedule: Q01DX010 (ip), vehicle: other 120 % of control | [5] 118 % of control | dose: 200.0 mg/kg/injection, schedule: Q04DX003 (ip), vehicle: saline 115 % of control | [6] 95 % of control | dose: 400.0 mg/kg/injection, schedule: Q04DX003 (ip), vehicle: saline 120 % of control

CC(C)(C)OP(=S)(OC(C)(C)C)OC(C)(C)C
inactive: dose: 100.0 mg/kg/injection, schedule: Q04DX002 (ip), vehicle: saline with Tween-80 96 % of control | dose: 200.0 mg/kg/injection, schedule: Q04DX002 (ip), vehicle: saline with Tween-80 108 % of control | dose: 400.0 mg/kg/injection, schedule: Q04DX002 (ip), vehicle: saline with Tween-80 106 % of control

Nc1ccc(-c2c[nH]c(=O)c([N+](=O)[O-])c2)cc1
inactive: [7] 99 % of control | [8] 99 % of control | [9] 100 % of control

CC1(C)NC(=O)N2CCCC(=O)CC21 (stereo unspecified)
inactive: dose: 100.0 mg/kg/injection, schedule: Q01DX001 (ip), vehicle: saline 96 % of control | dose: 200.0 mg/kg/injection, schedule: Q01DX001 (ip), vehicle: saline 95 % of control | dose: 400.0 mg/kg/injection, schedule: Q01DX001 (ip), vehicle: saline 96 % of control

COc1cc(Br)cc(OC)c1N=Cc1ccccc1
inactive: [7] 102 % of control | [8] 97 % of control | [9] 100 % of control

FC(F)(F)C(OP(OC(C(F)(F)F)C(F)(F)F)OC(C(F)(F)F)C(F)(F)F)C(F)(F)F
inactive: [1] 101 % of control | [2] 92 % of control | [3] 92 % of control

COC(=O)C1C(C)(C)N=[N+]([O-])C1(C)C (stereo unspecified)
inactive: dose: 12.5 mg/kg/injection, schedule: Q01DX009 (ip), vehicle: water 102 % of control | dose: 25.0 mg/kg/injection, schedule: Q01DX009 (ip), vehicle: water 107 % of control | dose: 50.0 mg/kg/injection, schedule: Q01DX009 (ip), vehicle: water 99 % of control | dose: 100.0 mg/kg/injection, schedule: Q01DX009 (ip), vehicle: water 97 % of control | dose: 200.0 mg/kg/injection, schedule: Q01DX009 (ip), vehicle: water 99 % of control

CCCCCCC(C)N=[N+]([O-])CC(C)OC(C)=O (stereo unspecified)
inactive: dose: 10.0 mg/kg/injection, schedule: Q01DX009 (ip), vehicle: saline with Tween-80 121 % of control | dose: 20.0 mg/kg/injection, schedule: Q01DX009 (ip), vehicle: saline with Tween-80 105 % of control | dose: 40.0 mg/kg/injection, schedule: Q01DX009 (ip), vehicle: saline with Tween-80 121 % of control

Cn1c(=O)c2c(ncn2C)n(C)c1=O.[Cl][Pt]([Cl])[Cl]
inactive: dose: 6.25 mg/kg/injection, schedule: Q01DX005 (ip), vehicle: water 116 % of control | dose: 12.5 mg/kg/injection, schedule: Q01DX005 (ip), vehicle: water 116 % of control and 124 % of control | dose: 25.0 mg/kg/injection, schedule: Q01DX005 (ip), vehicle: water 120 % of control | dose: 50.0 mg/kg/injection, schedule: Q01DX005 (ip), vehicle: water 121 % of control | dose: 100.0 mg/kg/injection, schedule: Q01DX005 (ip), vehicle: water 121 % of control

CCCCN(CCCC)CC(O)c1cc(-c2ccc(Cl)cc2)nc(-c2ccc(Cl)cc2)c1 (stereo unspecified)
inactive: dose: 12.5 mg/kg/injection, schedule: Q01DX009 (ip), vehicle: saline with Tween-80 90 % of control | dose: 25.0 mg/kg/injection, schedule: Q01DX009 (ip), vehicle: saline with Tween-80 90 % of control | [7] 92 % of control and 93 % of control | [8] 90 % of control

COC1OC(C)C(=O)C2OC12 (stereo unspecified)
inactive: [10] 112 % of control | [11] 116 % of control

CCCCCCCCCCCCCOCC(=O)O
inactive: [10] 100 % of control | [11] 95 % of control | dose: 200.0 mg/kg/injection, schedule: Q01DX009 (ip), vehicle: Klucel (hydroxypropylcellulose) (HPC) 102 % of control

COc1cccc2cc(-n3nnc4ccccc43)c(=O)oc12
inactive: dose: 30.0 mg/kg/injection, schedule: Q01DX005 (ip), vehicle: saline with Tween-80 94 % of control | [12] 86 % of control and 91 % of control and 94 % of control | [13] 94 % of control | [14] 86 % of control and 87 % of control

Nc1ccn(C2OC3COC2C3O)c(=O)n1 (stereo unspecified)
inactive: [15] 112 % of control | dose: 50.0 mg/kg/injection, schedule: Q01DX009 (ip), vehicle: saline + alcohol 100 % of control | [16] 110 % of control | dose: 100.0 mg/kg/injection, schedule: Q01DX009 (ip), vehicle: saline + alcohol 105 % of control | [4] 116 % of control | dose: 200.0 mg/kg/injection, schedule: Q01DX009 (ip), vehicle: saline + alcohol 112 % of control | [5] 117 % of control | dose: 400.0 mg/kg/injection, schedule: Q01DX009 (ip), vehicle: saline + alcohol 112 % of control | [6] 122 % of control | dose: 800.0 mg/kg/injection, schedule: Q01DX009 (ip), vehicle: saline + alcohol 114 % of control

CNC(=O)Sc1ccc(C)c(N(C)C)c1
inactive: [1] 111 % of control and 117 % of control | [2] 120 % of control

COc1ccc(S(=O)(=O)F)cc1C(=O)O
inactive: [12] 114 % of control | [13] 112 % of control | [14] 104 % of control

O=c1[nH]c(=O)n(C2CC(O)C(CO)O2)cc1S (stereo unspecified)
inactive: dose: 12.5 mg/kg/injection, schedule: Q01DX009 (ip), vehicle: saline 99 % of control and 101 % of control and 105 % of control | [15] 100 % of control (2×) and 111 % of control | [16] 101 % of control and 111 % of control and 118 % of control

CC1OC2CC(O)C1(O)C1=C2C(O)=C(C(N)=O)C(=N)C1=O (stereo unspecified)
inactive: dose: 0.01 mg/kg/injection, schedule: Q01DX009 (ip), vehicle: water 99 % of control | dose: 0.03 mg/kg/injection, schedule: Q01DX009 (ip), vehicle: water 100 % of control | dose: 0.07 mg/kg/injection, schedule: Q01DX009 (ip), vehicle: other 95 % of control | dose: 0.1 mg/kg/injection, schedule: Q01DX009 (ip), vehicle: water 100 % of control | dose: 0.15 mg/kg/injection, schedule: Q01DX009 (ip), vehicle: other 98 % of control | dose: 0.3 mg/kg/injection, schedule: Q01DX009 (ip), vehicle: water 100 % of control | dose: 0.31 mg/kg/injection, schedule: Q01DX005 (ip), vehicle: saline 104 % of control | dose: 0.31 mg/kg/injection, schedule: Q01DX009 (ip), vehicle: other 107 % of control | dose: 0.62 mg/kg/injection, schedule: Q01DX005 (ip), vehicle: saline 104 % of control | dose: 0.62 mg/kg/injection, schedule: Q01DX009 (ip), vehicle: other 101 % of control | dose: 1.0 mg/kg/injection, schedule: Q01DX009 (ip), vehicle: water 90 % of control | dose: 1.25 mg/kg/injection, schedule: Q01DX005 (ip), vehicle: saline 104 % of control | dose: 1.25 mg/kg/injection, schedule: Q01DX009 (ip), vehicle: other 103 % of control | dose: 2.5 mg/kg/injection, schedule: Q01DX005 (ip), vehicle: saline 104 % of control | dose: 2.5 mg/kg/injection, schedule: Q01DX009 (ip), vehicle: other 113 % of control | dose: 3.0 mg/kg/injection, schedule: Q01DX009 (ip), vehicle: water 100 % of control | dose: 5.0 mg/kg/injection, schedule: Q01DX005 (ip), vehicle: saline 101 % of control

Oc1ccc2c(c1)[C@]13CCCCC1[C@H](C2)N(Cc1ccoc1)CC3 (stereo partly specified)
inactive: [15] 97 % of control | [16] 99 % of control and 103 % of control | [4] 99 % of control
